Measured values as given in ChEMBL document CHEMBL5365476, “VHL-Modified PROteolysis TArgeting Chimeras (PROTACs) as a Strategy to Evade Metabolic Degradation in In Vitro Applications” (J Med Chem, 2023).
One block for each compound: values may come before it.

How the values were obtained:
[1] = Metabolic stability in human hepatocytes assessed as half life; assay type: ADME, cell-based, Hepatocyte
[2] = biological target: von Hippel-Lindau disease tumor suppressor (Homo sapiens) (UniProt P40337); assay: Binding affinity to 6-His tagged human VHL at 50 uM incubated for 1 hr by HTRF based assay relative to control
[3] = Metabolic stability in HEK293 cells cytosol assessed as half life; assay type: ADME, subcellular; conditions: human, HEK293 cell cytosol
[4] = Drug metabolism in HEK293 cells cytosol assessed as M+16 metabolite formation incubated for 60 mins; assay type: ADME, subcellular; conditions: human, 1 h
[5] = Drug metabolism in HEK293 cells cytosol assessed as M-200 metabolite formation incubated for 60 mins; assay type: ADME, subcellular; conditions: human, 1 h
[6] = Drug metabolism in HEK293 cells cytosol assessed as M-525 metabolite formation; assay type: ADME, subcellular; conditions: human
[7] = Drug metabolism in human hepatocytes assessed as M-200 metabolite formation incubated for 240 mins in presence of 3 uM ZPP by LC-MS/MS analysis; assay type: ADME, cell-based, Hepatocyte; conditions: 4 h
[8] = Drug metabolism in human liver microsomes assessed as M-200 metabolite formation incubated for 60 mins in presence of 30 nM ZPP; assay type: ADME, Microsome; conditions: 1 h
[9] = Drug metabolism in human hepatocytes assessed as M + 16 metabolite formation incubated for 240 mins by LC-MS/MS analysis; assay type: ADME, cell-based, Hepatocyte; conditions: 4 h
[10] = Drug metabolism in human hepatocytes assessed as M-200 metabolite formation incubated for 240 mins in presence of ZPP by LC-MS/MS analysis; assay type: ADME, cell-based, Hepatocyte; conditions: 4 h
[11] = Drug metabolism in HEK293 cells cytosol assessed as M-200 metabolite formation incubated for 60 mins in presence of 30 nM ZPP; assay type: ADME, subcellular; conditions: human, 1 h
[12] = Drug metabolism in human liver microsomes assessed as M-200 metabolite formation incubated for 60 mins; assay type: ADME, Microsome; conditions: 1 h
[13] = Drug metabolism in human liver microsomes assessed as M-200 metabolite formation incubated for 60 mins in presence of 1 nM ZPP; assay type: ADME, Microsome; conditions: 1 h
[14] = Drug metabolism in human hepatocytes assessed as M + 16 metabolite formation incubated for 240 mins in presence of ZPP by LC-MS/MS analysis; assay type: ADME, cell-based, Hepatocyte; conditions: 4 h
[15] = Drug metabolism in human liver cytosol assessed as M-200 metabolite formation incubated for 60 mins in presence of 30 nM ZPP; assay type: ADME, subcellular; conditions: 1 h
[16] = Drug metabolism in HEK293 cells cytosol assessed as M+16 metabolite formation incubated for 60 mins in presence of 1 to 30 nM ZPP; assay type: ADME, subcellular; conditions: human, 1 h
[17] = Drug metabolism in human liver cytosol assessed as M-200 metabolite formation incubated for 60 mins in presence of 100 uM ZPP; assay type: ADME, subcellular; conditions: 1 h

Sequence of von Hippel-Lindau disease tumor suppressor (Homo sapiens) (P40337 whole entry, looked up): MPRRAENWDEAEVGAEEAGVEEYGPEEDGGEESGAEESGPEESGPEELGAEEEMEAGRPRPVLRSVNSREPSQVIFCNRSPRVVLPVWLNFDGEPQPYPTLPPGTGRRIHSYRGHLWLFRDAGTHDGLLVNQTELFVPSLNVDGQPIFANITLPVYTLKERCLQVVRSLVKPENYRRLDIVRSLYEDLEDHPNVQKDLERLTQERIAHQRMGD

SMILES: Cc1nc(C)c(-c2ccc(-c3cnc([C@@H]4C[C@@H](O)CN4C(=O)[C@@H](NC(=O)CCCCNC(=O)COc4c(-c5csc(N6CCOCC6)n5)ccc(F)c4F)C(C)(C)C)[nH]3)cc2)s1
half-life [3]: 1020 min

SMILES: Cc1ncsc1-c1ccc(-c2cnc([C@@H]3C[C@@H](O)CN3C(=O)[C@@H](NC(=O)CCCCNC(=O)COc3c(-c4csc(N5CCOCC5)n4)ccc(F)c3F)C(C)(C)C)[nH]2)cc1
Drug metabolism [4]: Metabolite_Detected | Drug metabolism [5]: Metabolite_Notdetected

SMILES: Cc1ncsc1-c1ccc([C@H](C)NC(=O)[C@@H]2C[C@@H](O)CN2C(=O)[C@@H](NC(=O)CCCCNC(=O)COc2c(-c3csc(N4CCOCC4)n3)ccc(F)c2F)C(C)(C)C)cc1
Drug metabolism [6]: Metabolite_Detected | half-life [3]: 171 min | Drug metabolism [7]: Metabolite_Notdetected | Drug metabolism [8]: Metabolite_Notdetected | Drug metabolism [9]: Metabolite_Detected | Drug metabolism [10]: Metabolite_Detected | Drug metabolism [11]: Metabolite_Notdetected | Drug metabolism [12]: Metabolite_Notdetected | Drug metabolism [13]: Metabolite_Notdetected | Drug metabolism [14]: Metabolite_Detected | Drug metabolism [15]: Metabolite_Notdetected

Now from value to compound:

half-life [1]: 164 min | Activity [2]: 65%
SMILES: Cc1nc(C)c(-c2ccc([C@H](C)NC(=O)[C@@H]3C[C@@H](O)CN3C(=O)[C@@H](N)C(C)(C)C)cc2)s1.Cl

half-life [1]: 346 min | Activity [2]: 21%
SMILES: Cc1ncsc1-c1ccc(-c2c[nH]c([C@@H]3C[C@@H](O)CN3C(=O)[C@@H](N)C(C)(C)C)n2)cc1

half-life [1]: 335 min | Activity [2]: 35%
SMILES: Cc1nc(C)c(-c2ccc(-c3c[nH]c([C@@H]4C[C@@H](O)CN4C(=O)[C@@H](N)C(C)(C)C)n3)cc2)s1

half-life [1]: 121 min | Drug metabolism [4]: Metabolite_Detected | Drug metabolism [16]: Metabolite_Detected | Drug metabolism [9]: Metabolite_Detected | Drug metabolism [17]: Metabolite_Detected | Activity [2]: 73% | Drug metabolism [14]: Metabolite_Detected
SMILES: Cc1ncsc1-c1ccc([C@H](C)NC(=O)[C@@H]2C[C@@H](O)CN2C(=O)[C@@H](N)C(C)(C)C)cc1
